According to patent publication US9271991B2, “Trimegestone (TMG) for treatment of preterm birth” (Dignity Health, priority 2010, dated 2016):

Tests used:
[1] = system: pregnant rats (term delivery); assay: Delay of term delivery in pregnant rats; format: in vivo, Sprague-Dawley rats
From the text: Timed-pregnant Sprague-Dawley rats (200-250 g) from Charles-River Laboratories (Wilmington, Mass., USA) were delivered to our animal care facilities on day 15 of gestation (day 1 being the day when a sperm plug was observed). The animals were housed separately, with free access to food and water and maintained on a constant 12-hour light-dark cycle. Control pregnant rats were spontaneously delivering on day 22 of gestation. The animals were randomly allocated into groups and sacrificed by carbon dioxide inhalation on day 5 postpartum or on day 25 of gestation in the groups with delayed delivery.
Pregnant rats (N=6 per group) were treated, when not otherwise mentioned, from day 20 of gestation until delivery. Single daily treatments were performed at 8 am and twice a day treatments at 8 am and 8 pm. Treatment began daily on day 20 of gestation with vehicles or: a) Topical P4 at various doses (4-30 mg/day, vehicle (v)=fish oil) or topical TMG ([…], v=fish oil; b) Subcutaneous (s.c.) P4 (0.5-4 mg/day, v=sesame oil) or s.c. TMG (0.5-2 mg/day, v=benzyl benzoate (BB) and castor oil (CO), 1:4). Delivery times were observed.
Subcutaneous treatments. All daily injections were by the subcutaneous route (s.c) in […] for the P4 treatments and benzyl benzoate (BB, 1 part): castor oil (CO, 4 parts) for the TMG group. P4 and TMG had dose ranges of 0.5 mg-4 mg per day and 0.5 mg-2 mg per day, respectively. Vehicles only are used in the control groups.
Topical treatments. Topical P4 and TMG (in fish oil and benzyl benzoate:castor oil (1:4), respectively) treatments were applied to the shaved back of the rat twice a day For topical treatments of P4 and TMG, dose range from 2 mg-30 mg per day and 0.005 to 0.5 mg per day, respectively.
Times of delivery of controls and treatment groups were determined as hours after 8 a.m. on day 22 of gestation. […] Delays in delivery less than 80 hours were calculated as less than 100% inhibition. The expulsion of a single pup was noted as delivery. Control groups spontaneously delivered on day 22 of gestation.
The Student's t test was used to compare the treatment groups with its specific control groups to determine the differences in delivery times. A 2-tailed probability value of P<0.05 was considered statistically significant.

[2] = system: offspring of TMG-treated rats; assay: Fertility of offspring of TMG-treated pregnant rats; format: in vivo, rat; details: offspring bred at 5 months with untreated partners, n=6 per sex
From the text: To determine the effects of TMG on fertility the following procedure was followed. When pups from TMG-treated pregnant rats were of breeding age (5 months) the females were placed with normal (untreated) males for 6 days. Similarly, male pups from TMG-treated rats were placed with normal (untreated) females for 6 days.

[3] = target: T1, androgen receptor (Homo sapiens, UniProt P10275); details: cited from earlier work
T1 sequence (P10275 1-920): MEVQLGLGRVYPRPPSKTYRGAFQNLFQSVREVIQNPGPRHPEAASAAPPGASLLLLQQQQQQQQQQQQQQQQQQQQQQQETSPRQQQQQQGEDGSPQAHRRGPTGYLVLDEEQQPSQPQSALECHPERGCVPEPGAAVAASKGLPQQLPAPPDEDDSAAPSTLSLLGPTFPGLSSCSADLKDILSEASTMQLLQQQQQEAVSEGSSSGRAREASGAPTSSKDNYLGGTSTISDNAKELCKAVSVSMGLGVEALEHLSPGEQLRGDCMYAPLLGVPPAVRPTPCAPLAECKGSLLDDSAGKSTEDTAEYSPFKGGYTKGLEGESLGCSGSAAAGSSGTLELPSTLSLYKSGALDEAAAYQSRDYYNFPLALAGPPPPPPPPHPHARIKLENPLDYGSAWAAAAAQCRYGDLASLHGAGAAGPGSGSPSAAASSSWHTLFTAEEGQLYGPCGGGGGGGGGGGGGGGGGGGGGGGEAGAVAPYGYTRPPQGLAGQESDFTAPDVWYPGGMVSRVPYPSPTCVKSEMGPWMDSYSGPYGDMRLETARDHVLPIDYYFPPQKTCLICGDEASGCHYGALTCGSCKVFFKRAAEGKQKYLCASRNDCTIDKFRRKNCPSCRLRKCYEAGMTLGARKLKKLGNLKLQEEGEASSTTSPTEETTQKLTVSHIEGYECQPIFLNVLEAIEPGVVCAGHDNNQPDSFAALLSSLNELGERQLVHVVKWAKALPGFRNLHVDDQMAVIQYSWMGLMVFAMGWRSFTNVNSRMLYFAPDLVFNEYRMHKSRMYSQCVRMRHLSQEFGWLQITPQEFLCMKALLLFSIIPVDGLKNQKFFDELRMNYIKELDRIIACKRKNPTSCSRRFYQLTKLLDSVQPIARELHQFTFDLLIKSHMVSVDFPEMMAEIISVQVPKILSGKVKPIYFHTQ

[4] = pregnant rats, s.c. single daily treatment from day 20 of gestation

SMILES: C[C@H](O)C(=O)[C@@]1(C)CC[C@H]2[C@@H]3CCC4=CC(=O)CCC4=C3CC[C@@]21C [TMG, trimegestone]
- dose for complete block of delivery (80 hour delay, 100 percent inhibition), subcutaneous [1, 4]: 0.5 mg
- dose for complete block of delivery, subcutaneous [1, 4]: 0.5 mg/day
- lower dose for complete block of term delivery compared to P4, subcutaneous ([1]; pregnant rats, s.c., 0.5 mg TMG vs. 2 mg P4, P<0.05): ca. 4 ×
- dose for complete block of delivery, topical ([1]; pregnant rats, topical twice a day from day 20 of gestation): 0.1 mg/day
- lower dose for complete block of term delivery compared to P4, topically ([1]; pregnant rats, topical, 0.5 mg TMG vs. 15 mg P4, P<0.05): ca. 30 ×
- potency in delaying delivery in rats compared to P4 ([1]; topical and parenteral administration): more potent than P4
- fertility of male and female offspring of treated rats [2]: not compromised
- affinity to the androgen receptor [3]: low affinity
